SMILES strings stand for the structures. Like-named read-outs stand apart in the source and are kept apart here.

One series deals with T1, COX-2 (Rattus norvegicus, UniProt P35355).
T1 construct: from tissue; host or cells: brain regions of QA-lesioned Wistar rats (in vivo injection, ex vivo counting)
T1 sequence (P35355 18-604): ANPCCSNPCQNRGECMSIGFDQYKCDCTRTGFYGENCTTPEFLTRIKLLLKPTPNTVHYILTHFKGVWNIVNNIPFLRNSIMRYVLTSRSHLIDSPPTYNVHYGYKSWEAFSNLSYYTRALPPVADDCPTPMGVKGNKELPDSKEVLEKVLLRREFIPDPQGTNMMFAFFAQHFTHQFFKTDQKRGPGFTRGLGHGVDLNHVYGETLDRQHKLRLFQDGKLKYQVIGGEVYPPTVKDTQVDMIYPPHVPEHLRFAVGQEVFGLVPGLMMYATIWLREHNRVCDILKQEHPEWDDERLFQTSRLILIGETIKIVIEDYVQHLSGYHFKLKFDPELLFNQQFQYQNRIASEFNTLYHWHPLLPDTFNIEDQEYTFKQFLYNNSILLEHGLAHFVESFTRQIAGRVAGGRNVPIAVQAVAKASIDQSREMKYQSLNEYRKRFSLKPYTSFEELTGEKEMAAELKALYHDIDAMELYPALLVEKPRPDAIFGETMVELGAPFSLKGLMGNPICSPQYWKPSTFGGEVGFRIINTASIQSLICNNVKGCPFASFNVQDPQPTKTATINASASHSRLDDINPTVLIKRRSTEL
In words: Ex vivo cerebral biodistribution and blocking studies in quinolinic acid lesioned rats. Also noted: species or system Wistar rats. From the text: This model consists of a unilateral intrastriatal injection of quinolinic acid to induce excitotoxicity mediated via NMDA receptor activation. This animal model is well known in the literature to produce an inflammatory reaction induced by COX-2 activation in lesioned cerebral parenchyma.
The cerebral biodistribution of [^18F]16 in rats lesioned with QA was expressed as percent of injected dose per gram of tissue (%ID/g) and is shown in Figure 3.
Figure 3. Cerebral biodistribution of [^18F]16, 60 min after i.v. injection in rats, 7 days after focal intrastriatal injection of 150 nmol of quinolinic acid. In the “celecoxib” and “cold 16” groups, animals received an i.v. pre-injection (15 min) of the corresponding compound (3 mg/kg). Results are expressed as % injected dose/g tissue ± SEM. Cx: cortex; Stri: striatum; Hip: hippocampus, Cb: cerebellum.
Blocking in vivo experiments, consisting of a pretreatment with either celecoxib or cold 16 (3 mg/kg) 15 min before injection of the radiotracer, are also presented in Figure 3. […] This confirmed that the low in vivo accumulation observed consisted of nonspecific binding.
Animals. All procedures were conducted in accordance with the requirements of the European Community Council for the care of laboratory animals 2010/63/EU, and approved by the regional ethical committee (Authorization N°2015022011523044). Experiments were carried out on adult Wistar rats (Centre d’Elevage René Janvier, Le Genest-St-Isle, France) weighing 276 ± 19 g at the beginning of the experiments. Animals were housed in groups of two per cage in a temperature and humidity controlled environment (temperature 21 °C ± 1 °C; hygrometry 55% ± 5%), under a 12 h light/dark cycle with food and water available ad libitum.
Surgery: Surgery was performed under isoflurane (AErrane, Baxter, France) anaesthesia (4% for anaesthesia induction and thereafter 2% for its maintenance, in N2O-O2: 70%-30%). The animal's body temperature (36.8 ± 0.5 °C) was monitored with a homoeothermic probe throughout surgery. A unilateral striatal QA lesion was induced in 18 adult male Wistar rats as previously described^14. This procedure results in a well-delineated reproducible excitotoxic lesion to the striatum and ipsilateral cortex.
Ex vivo cerebral biodistribution studies were performed with [^18F]16 in QA lesioned animals at 7 days post lesion (n=6 per group). Rats were i.v. injected (penis vein) with [^18F]16 (2.5 ± 1 MBq) in 300 μL normal saline). […] Animals were sacrificed by decapitation 60 min post [^18F]16 injection. The whole brain was quickly removed and several brain areas (cerebellum, left and right hippocampus, left and right frontal cortex, and left and right striatum), together with the femur, to detect potential in vivo defluorination of the tracer, were dissected and weighed, and their radioactivity was measured using an automated gamma counter (2480 Gamma counter Wizard, Perkin Elmer). The percentage of injected dose per gram tissue (%ID/g) was calculated by comparison with samples to standard dilutions of the initial injected solution.
Statistical analysis: Results were expressed as mean ± standard error of the mean (SEM). Groups of rats (control vs unlabeled compound 16 preinjection, or control vs celecoxib preinjection) were compared using the Mann–Whitney test. Comparisons of binding between ipsi- and contralateral brain structures were performed using the Wilcoxon one-tailed test. The level of significance was p<0.05 (XLStat software®).

A further series addresses T2, human recombinant COX-2 (Homo sapiens, UniProt P35354).
T2 construct: purchased Cayman Chemical 700100, No. 760111
T2 sequence (P35354 18-604): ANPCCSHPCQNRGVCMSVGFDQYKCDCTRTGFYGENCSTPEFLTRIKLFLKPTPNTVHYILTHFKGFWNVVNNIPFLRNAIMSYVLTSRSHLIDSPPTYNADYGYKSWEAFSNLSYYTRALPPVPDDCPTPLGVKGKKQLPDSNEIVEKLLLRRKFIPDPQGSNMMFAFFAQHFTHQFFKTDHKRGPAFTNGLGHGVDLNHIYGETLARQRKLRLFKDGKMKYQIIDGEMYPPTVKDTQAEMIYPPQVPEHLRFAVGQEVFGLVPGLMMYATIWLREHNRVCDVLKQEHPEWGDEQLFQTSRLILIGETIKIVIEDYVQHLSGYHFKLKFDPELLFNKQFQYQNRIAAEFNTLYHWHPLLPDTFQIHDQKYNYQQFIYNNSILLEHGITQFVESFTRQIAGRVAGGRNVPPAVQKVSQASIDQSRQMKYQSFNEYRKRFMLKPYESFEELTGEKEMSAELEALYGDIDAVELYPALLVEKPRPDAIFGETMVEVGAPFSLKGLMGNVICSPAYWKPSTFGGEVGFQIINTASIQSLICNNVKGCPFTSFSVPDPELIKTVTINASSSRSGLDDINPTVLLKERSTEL
In words: COX Inhibitor Screening Kit (Cayman), fluorescence-based, COX-2 inhibition. The class given is biochemical. As to conditions: for fold decrease in COX-2 activity versus analog: 41 and 42 versus 14, 17 versus 16; for COX-2 activity in words: SAR discussion.

The mark [1] stands for this setting: means of triplicates, except DuP-697 (n = 27) and Celecoxib (n = 5).

`NS(=O)(=O)c1ccc(-n2nc3ccccc3c2-c2ccc([18F])cc2)cc1` [[^18F]16, 4-[3-(4-[^18F]Fluorophenyl)indazol-2-yl]benzenesulfonamide]: at COX-2 (from femur uptake, rats), the defluorination in vivo entry is given as “negligible defluorination”. Besides, at COX-2 (pretreatment with celecoxib or cold 16 (3 mg/kg i.v.) 15 min before radiotracer), the “decrease in accumulation after blocking pretreatment” value is “In none of these experiments was a decrease in [^18F]16 accumulation observed”. The “bone uptake in the femur” value at COX-2 (rats, 60 min after i.v. injection) is reported as 0.154 ± 0.032 %ID/g tissue. In addition, the “accumulation in activated brain areas compared to contralateral striatum and cortex” value on COX-2 (rats, 7 days after intrastriatal QA, 60 min after i.v. injection) is given as “no statistically significant difference”. In addition, the “passage through the blood-brain-barrier (BBB)” value at COX-2 (rats, preliminary results) is “low passage”.

Broadly, the IC50 is the concentration that inhibits the measured activity by half. The term melting point denotes the temperature of the solid-liquid transition. `CS(=O)(=O)c1ccc(-n2nc3ccccc3c2-c2ccc(F)cc2)cc1` [compound 14, 3-(4-Fluorophenyl)-2-(4-methylsulfonylphenyl)indazole] came in with a melting point of 173 to 175 °C. Further, the IC50 at human recombinant COX-2 is about 1 µM. In addition, the concentration for half-maximal inhibition (IC50) on human recombinant COX-2 (setting [1]) was 1.46 ± 0.5 µM.

`CS(=O)(=O)c1ccc(-c2c3ccccc3nn2-c2ccc(F)cc2)cc1` [compound 15, 2-(4-Fluorophenyl)-3-(4-methylsulfonylphenyl)indazole] showed a melting point of 198 to 200 °C. Moreover, the half-inhibitory concentration (IC50) at human recombinant COX-2 was at most 2 µM. Moreover, the IC50 on human recombinant COX-2 (setting [1]) was found to be 2.3 ± 0.5 µM.

In the case of `NS(=O)(=O)c1ccc(-n2nc3ccccc3c2-c2cccc(F)c2)cc1` [compound 17, 4-[3-(3-Fluorophenyl)indazol-2-yl]benzenesulfonamide], the melting point is over 250 °C. Further, the “fold decrease in COX-2 activity versus analog” value at human recombinant COX-2 was 10 fold. In addition, the concentration for half-maximal inhibition (IC50) on human recombinant COX-2 (setting [1]) was found to be 4.2 ± 0.4 µM.

On to `Cc1ccc(-c2c3ccccc3nn2-c2ccc(S(C)(=O)=O)cc2)cc1F` [compound 18, 3-(3-Fluoro-4-methyl-phenyl)-2-(4-methylsulfonylphenyl)indazole], for which the melting point lay within 149 to 151 °C. Besides, the IC50 on human recombinant COX-2 (setting [1]) was determined as 1.03 ± 0.2 µM.

`CCOc1ccc(-c2c3ccccc3nn2-c2ccc(S(C)(=O)=O)cc2)cc1F` [compound 19, 3-(4-Ethoxy-3-fluoro-phenyl)-2-(4-methylsulfonylphenyl)indazole] showed a melting point of 138 to 140 °C. The 50% inhibitory concentration (IC50) at human recombinant COX-2 (setting [1]) was over 25 µM.

`CCOc1ccc(-c2c3ccccc3nn2-c2ccc(S(C)(=O)=O)cc2)cc1C(F)(F)F` [compound 20, 3-[4-Ethoxy-3-(trifluoromethyl)phenyl]-2-(4-methylsulfonylphenyl)indazole] came in with a melting point of 196 to 198 °C.

`CS(=O)(=O)c1ccc(-n2nc3ccccc3c2-c2ccc(Cl)c(C(F)(F)F)c2)cc1` [compound 21, 3-[4-Chloro-3-(trifluoromethyl)phenyl]-2-(4-methylsulfonylphenyl)indazole] gave a melting point of 197 to 199 °C. At human recombinant COX-2 (setting [1]), the IC50 was found to be 1.1 ± 0.3 µM.

With `CS(=O)(=O)c1ccc(-n2nc3ccccc3c2-c2ccc(F)nc2)cc1` [compound 22, 3-(6-Fluoro-3-pyridyl)-2-(4-methylsulfonylphenyl)indazole], the melting point is 216 to 218 °C. Further, the IC50 at human recombinant COX-2 (setting [1]) was over 25 µM.

In the case of `CS(=O)(=O)c1ccc(-n2nc3ccccc3c2-c2ccc(F)nc2F)cc1` [compound 23, 3-(2,6-Difluoro-3-pyridyl)-2-(4-methylsulfonylphenyl)indazole], the melting point lay in the range of 84 to 86 °C. In addition, the IC50 on human recombinant COX-2 (setting [1]) was over 25 µM.

Turning to `COc1ccc(-c2c3ccccc3nn2-c2ccc(S(C)(=O)=O)cc2)cn1` [compound 24, 3-(6-Methoxy-3-pyridyl)-2-(4-methylsulfonylphenyl)indazole], the melting point lay in the range of 146 to 148 °C. In addition, on human recombinant COX-2, the “COX-2 activity in words” value was “moderate activity”. Besides, the half-maximal inhibitory concentration (IC50) at human recombinant COX-2 (setting [1]) is 2.98 ± 0.4 µM.

`COc1cncc(-c2c3ccccc3nn2-c2ccc(S(C)(=O)=O)cc2)c1` [compound 25, 3-(5-Methoxy-3-pyridyl)-2-(4-methylsulfonylphenyl)indazole]: the melting point is 215 to 217 °C. Moreover, at human recombinant COX-2 (setting [1]), the half-inhibitory concentration (IC50) is over 25 µM.

Compound `CCOc1ccc(-c2c3ccccc3nn2-c2ccc(S(C)(=O)=O)cc2)cn1` [compound 26, 3-(6-Ethoxy-3-pyridyl)-2-(4-methylsulfonylphenyl)indazole] showed a melting point of 147 to 149 °C. Moreover, the “COX-2 activity in words” value on human recombinant COX-2 is given as “moderate activity”. At human recombinant COX-2 (setting [1]), the concentration for half-maximal inhibition (IC50) was 4.46 ± 0.4 µM.

Regarding `CCOc1ncc(-c2c3ccccc3nn2-c2ccc(S(C)(=O)=O)cc2)cn1` [compound 27, 3-(2-Ethoxypyrimidin-5-yl)-2-(4-methylsulfonylphenyl)indazole], the melting point was 217 to 219 °C. For the same compound, the “COX-2 activity in words” value at human recombinant COX-2 is “totally inactive”. In addition, on human recombinant COX-2 (setting [1]), the IC50 was over 25 µM.

`CS(=O)(=O)c1ccc(-n2nc3cccnc3c2-c2ccc(F)cc2)cc1` [compound 39, 3-(4-Fluorophenyl)-2-(4-methylsulfonylphenyl)pyrazolo[4,3-b]pyridine] yielded a melting point of 219 to 221 °C. Further, the IC50 on human recombinant COX-2 (setting [1]) was over 25 µM.

Take `CS(=O)(=O)c1ccc(-n2nc3cnccc3c2-c2ccc(F)cc2)cc1` [compound 40, 3-(4-Fluorophenyl)-2-(4-methylsulfonylphenyl)pyrazolo[3,4-c]pyridine]: at human recombinant COX-2 (setting [1]), the IC50 amounted to 4.42 ± 0.6 µM.

As for `CS(=O)(=O)c1ccc(-n2nc3ncccc3c2-c2ccc(F)cc2)cc1` [compound 41, 3-(4-Fluorophenyl)-2-(4-methylsulfonylphenyl)pyrazolo[3,4-b]pyridine], on human recombinant COX-2, the “fold decrease in COX-2 activity versus analog” value was found to be 4 fold. Besides, the IC50 at human recombinant COX-2 (setting [1]) was 4.75 ± 0.6 µM.

As to `NS(=O)(=O)c1ccc(-n2nc3ccccc3c2-c2ccc([N+](=O)[O-])cc2)cc1` [compound 42, 4-[3-(4-Nitrophenyl)indazol-2-yl]benzenesulfonamide], the melting point lay in the range of 221 to 223 °C. Further, at human recombinant COX-2, the “fold decrease in COX-2 activity versus analog” value came to 4 fold.
